How the values were obtained:
[1] = target: T1, CYP1A2 (Rattus norvegicus, UniProt P04799); assay: In vitro cocktail CYP450 activity assay in rat liver microsomes, CYP1A2 (phenacetin probe); conditions: for IC50: IC50 CYP1A2, single components, RLM 0.2 mg/mL, 15 min, triplicate, mean ± SD
T1 sequence (P04799 1-513): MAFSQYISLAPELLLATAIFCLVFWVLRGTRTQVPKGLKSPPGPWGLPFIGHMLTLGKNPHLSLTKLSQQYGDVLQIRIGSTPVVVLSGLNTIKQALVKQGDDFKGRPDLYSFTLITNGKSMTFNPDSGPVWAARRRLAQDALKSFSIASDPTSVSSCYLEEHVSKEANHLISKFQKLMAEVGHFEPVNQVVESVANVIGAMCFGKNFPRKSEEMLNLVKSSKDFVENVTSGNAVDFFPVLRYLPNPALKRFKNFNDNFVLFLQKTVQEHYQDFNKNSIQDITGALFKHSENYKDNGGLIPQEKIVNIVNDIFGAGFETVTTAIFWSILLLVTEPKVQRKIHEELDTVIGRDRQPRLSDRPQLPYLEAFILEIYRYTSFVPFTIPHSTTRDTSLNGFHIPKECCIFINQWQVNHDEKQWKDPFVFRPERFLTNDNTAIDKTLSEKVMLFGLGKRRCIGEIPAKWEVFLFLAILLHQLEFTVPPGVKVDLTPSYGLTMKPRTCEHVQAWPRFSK
Method: (§1) (OHBUP-[D6]) and 5 nM 4′-hydroxydiclofenac-[^13C6] (OHDIC-[^13C6]) as internal standards (ISs). […]
(§2) standard addition experiments. Each group included four concentration levels. For the PK […]
(§3) The probe compounds, viz. […]
(§4) chosen after incubating all the recruited substrates. In order to assure the linear relationship […]
(§5) The incubation system was also optimized in terms of substrate concentrations. The substrates concentrations of […]

[2] = in vivo; design: species or system Sprague-Dawley (SD) rats; conditions: Sprague-Dawley, plasma, rat
Method: At each time, 0.5 mL of blood was collected in the heparin sodium tubes. Plasma was separated by centrifugation at 4000 rpm for 10 min and stored below −80 °C until bioanalysis. Oasis PRiME HLB SPE cartridges (1 cc/30 mg, Waters, Milford, MA, USA) were used to process the plasma samples (Supplementary Materials).
The generic layout of instrumentation setup of the LVDI-UHPLC-MS/MS was conducted on a Shimadzu UHPLC system consisting of two LC-20ADXR pumps, a DGU-20A3R degasser, and a CBM-20A controller (Kyoto, Japan) with a SCIEX 4500 QTRAP mass spectrometer mounted with an electron spray ionization (ESI) interface as well as an electronic 6-port/2-channel valve (Foster City, CA, USA). Analyst software package (version 1.6.2, SCIEX) was implemented to control and synchronize the entire system, and also for data acquisition and processing. A single analytical run was fragmented into two phases, namely, loading and elution phases, by switching the electronic valve (Figure 2). At the loading phase, the valve was maintained at A-channel. The specimen aliquot of large volume delivered from the auto-sampler was captured onto a guard column. Meanwhile, the pumps were responsible for delivering the mobile phase at a high flow rate, aiming to dilute the sample solvent, thus facilitating the candidate constituents to concentrate on the pre-guard column. Then, the valve was automatically switched to the B-channel to trigger the elution phase. The trapped components were flushed from the pre-guard column into an analytical column, and underwent multiple reaction monitoring (MRM) analysis on the optimized LC gradients. The detailed information of LVDI-UHPLC-MS/MS analysis for pharmacokinetic and cocktail studies is shown in the Supplementary Materials section.

[3] = target: T2, CYP2E1 (Rattus norvegicus, UniProt P05182); conditions: IC50 CYP2E1, single components; RLM 0.2 mg/mL, 15 min, triplicate, mean ± SD
[4] = test system: CYP2C19; assay: In vitro cocktail CYP450 activity assay in rat liver microsomes, CYP2C19 (omeprazole probe); conditions: for IC50 at 15 min: Sprague-Dawley, rat, pooled rat liver microsomes, pH 7.4, probe omeprazole (1.07 µM, in seven-probe cocktail), IC50 CYP2C19, single components, RLM 0.2 mg/mL, triplicate, mean ± SD
Method: as §1, §2, §3, §4, §5

[5] = test system: CYP2B6; assay: In vitro cocktail CYP450 activity assay in rat liver microsomes, CYP2B6 (bupropion probe); conditions: Sprague-Dawley, rat, pooled rat liver microsomes, pH 7.4, probe bupropion (90 µM, in seven-probe cocktail), IC50 CYP2B6, single components; RLM 0.2 mg/mL, 15 min, triplicate, mean ± SD
Method: as §1, §2, §3, §4, §5

[6] = test system: CYP3A4; assay: in vitro; conditions: Sprague-Dawley, rat, pH 7.4; for IC50 at 15 min: microsomes
Method: as §1, §2, §3, §4, §5

[7] = test system: CYP2C9; assay: In vitro cocktail CYP450 activity assay in rat liver microsomes, CYP2C9 (tolbutamide probe); conditions: for IC50 at 15 min: Sprague-Dawley, rat, pooled rat liver microsomes, pH 7.4, probe tolbutamide (18 µM, in seven-probe cocktail), IC50 CYP2C9, single components, RLM 0.2 mg/mL, triplicate, mean ± SD
Method: as §1, §2, §3, §4, §5

[8] = test system: CYP2D6; assay: in vitro; conditions: Sprague-Dawley, rat; for IC50 at 15 min: microsomes, pH 7.4, IC50 CYP2D6
Method: as §1, §2, §3, §4, §5

[9] = target: T2, CYP2E1; conditions: at the Cmax level in rat plasma, calculated from the dose–response curve
[10] = at the Cmax level in rat plasma, calculated from the dose–response curve

T2 sequence (P05182 whole entry): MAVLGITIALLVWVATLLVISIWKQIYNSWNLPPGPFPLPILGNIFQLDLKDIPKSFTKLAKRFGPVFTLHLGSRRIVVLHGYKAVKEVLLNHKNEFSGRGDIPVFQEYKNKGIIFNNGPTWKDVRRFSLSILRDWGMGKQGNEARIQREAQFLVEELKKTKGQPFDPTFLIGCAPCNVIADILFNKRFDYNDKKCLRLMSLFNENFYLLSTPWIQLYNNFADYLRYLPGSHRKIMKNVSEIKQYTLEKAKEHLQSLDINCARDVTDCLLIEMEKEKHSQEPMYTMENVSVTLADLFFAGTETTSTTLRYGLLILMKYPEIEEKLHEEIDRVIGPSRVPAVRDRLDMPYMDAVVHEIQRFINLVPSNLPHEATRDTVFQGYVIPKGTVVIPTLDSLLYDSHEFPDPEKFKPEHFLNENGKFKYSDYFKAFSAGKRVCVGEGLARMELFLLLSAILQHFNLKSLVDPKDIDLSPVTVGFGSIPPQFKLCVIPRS

In the case of `CC(C)=CCC[C@](C)(O[C@@H]1O[C@H](CO)[C@@H](O)[C@H](O)[C@H]1O)[C@H]1CC[C@]2(C)[C@@H]1[C@H](O)C[C@@H]1[C@@]3(C)CC[C@H](O[C@@H]4O[C@H](CO)[C@@H](O)[C@H](O)[C@H]4O[C@@H]4O[C@H](CO)[C@@H](O)[C@H](O)[C@H]4O)C(C)(C)[C@@H]3CC[C@]12C` [GRd, ginsenoside Rd], the IC50 [1] is reported as 4.36 ± 2.31 µM, the “Response (% control) CYP1A2” value [1, 10] is reported as 71.33 % control and the concentration at […] ([2]; 0.083 h after oral CNP) is reported as 6.63 ± 0.64 ng/mL. For the same compound, the concentration at 0.25 h ([2]; 0.25 h after oral CNP) was 7.13 ± 0.69 ng/mL, the concentration at 0.5 h ([2]; 0.5 h after oral CNP) was 12.5 ± 4.73 ng/mL and the concentration at 1 h ([2]; 1 h after oral CNP) was 13.5 ± 3.67 ng/mL. It also gave a concentration at 1.5 h ([2]; 1.5 h after oral CNP) of 12.8 ± 1.79 ng/mL, a concentration at 2 h ([2]; 2 h after oral CNP) of 17.6 ± 5.2 ng/mL and a concentration at 3 h ([2]; 3 h after oral CNP) of 18.7 ± 7.48 ng/mL. It also gave a concentration at 4 h ([2]; 4 h after oral CNP) of 25 ± 15.8 ng/mL, a concentration at 6 h ([2]; 6 h after oral CNP) of 24.9 ± 13.1 ng/mL and a concentration at 8 h ([2]; 8 h after oral CNP) of 15.6 ± 5.29 ng/mL. It also gave a concentration at 12 h ([2]; 12 h after oral CNP) of 12.4 ± 7.03 ng/mL, a concentration at 24 h ([2]; 24 h after oral CNP) of 2.85 ± 0.67 ng/mL and a concentration at 48 h ([2]; 48 h after oral CNP) of 3.96 ± 0.34 ng/mL. The concentration at 72 h ([2]; 72 h after oral CNP) was 2.32 ± 0.12 ng/mL, the AUC(0-inf) ([2]; po, 60 mg/kg) was 619 ± 157 ng·h/mL and the AUC(0-t) ([2]; po, 60 mg/kg) was 461 ± 117 ng·h/mL. It also gave a Cmax ([2]; po, 60 mg/kg) of 29.4 ± 10.7 ng/mL, a Tmax ([2]; po, 60 mg/kg) of 4.5 ± 1.76 h and a half-life ([2]; po, 60 mg/kg) of 42.8 ± 8.84 h. For the same compound, the concentration at 0.25 h ([2]; po, 60 mg·kg^−1) was 9 ± 2.12 ng/mL, the concentration at 0.5 h ([2]; po, 60 mg·kg^−1) was 11.5 ± 0.97 ng/mL and the concentration at 1 h ([2]; po, 60 mg·kg^−1) was 13.9 ± 4.94 ng/mL. For the same compound, the concentration at 1.5 h ([2]; po, 60 mg·kg^−1) was 14.9 ± 3.51 ng/mL, the concentration at 2 h ([2]; po, 60 mg·kg^−1) was 19.2 ± 6.71 ng/mL and the concentration at 3 h ([2]; po, 60 mg·kg^−1) was 22.3 ± 14.6 ng/mL. It also gave a concentration at 4 h ([2]; po, 60 mg·kg^−1) of 23.9 ± 12.6 ng/mL, a concentration at 6 h ([2]; po, 60 mg·kg^−1) of 26.2 ± 10.4 ng/mL and a concentration at 8 h ([2]; po, 60 mg·kg^−1) of 16.7 ± 7.24 ng/mL. The concentration at 12 h ([2]; po, 60 mg·kg^−1) was 8.73 ± 3.74 ng/mL, the concentration at 24 h ([2]; po, 60 mg·kg^−1) was 3.57 ± 1.4 ng/mL and the concentration at 48 h ([2]; po, 60 mg·kg^−1) was 4.15 ± 1.97 ng/mL. The concentration at 72 h ([2]; po, 60 mg·kg^−1) was 2.52 ± 0.63 ng/mL, the IC50 [3] was 43.46 ± 0.06 µM and the IC50 at 15 min [4] was 71.4 ± 14.3 µM. The “Response (% control) CYP2C19” value [4, 10] was 99.95 % control, the IC50 at 15 min [5] was over 200 µM and the “Response (% control) CYP3A4” value ([6]; 15 min) was 85.25 % control. For the same compound, the IC50 at 15 min [6] was 61.4 ± 14.3 µM, the IC50 at 15 min [7] was 73 ± 3.71 µM and the “Response (% control) CYP2C9” value [7, 10] was 99.97 % control. The “Response (% control) CYP2D6” value ([8]; 15 min, pH 7.4) was 99.99 % control, the IC50 at 15 min [8] was 64.8 ± 11.7 µM and the “Response (% control) CYP2E1” value [9] was 98.16 % control.

For `O=c1c(O)c(-c2ccc(O)cc2)oc2cc(O)cc(O)c12` [A17, kaempferol], the IC50 [1] was 21.5 ± 4.5 µM, the IC50 [3] was 32.5 ± 5.79 µM and the IC50 at 15 min [4] was 70.4 ± 1.18 µM. The IC50 at 15 min [5] was over 200 µM, the IC50 at 15 min [6] was 117 ± 6.77 µM and the IC50 at 15 min [7] was 14.9 ± 4.24 µM. For the same compound, the IC50 at 15 min [8] was 59.2 ± 1.01 µM.

From paper PMC7076352 (Pharmaceutics, 2020)
